Measurements as given in US5169780A, “Enantiomeric enrichment and stereoselective synthesis of chiral amines” (Celgene Corporation, priority 1990, dated 1992).

Tests used:
[1] = tested on: omega-amino acid transaminase; experiment: relative rates of conversion of different chiral amines by soluble enzymatic preparations; format: biochemical; conditions: for conversion to the nonchiral ketone by the transaminase: racemate subjected to the enzyme
Experimental: (§1) Enzyme Activity: Enzyme activity is expressed herein as units/mg. A unit of enzyme activity is defined as that which produces 1 micromole of ketone per minute. For uniformity, this is measured as micromoles of 1-phenylbutan-3-one formed from R,S-1-phenyl-3-aminobutane. The following standardized assay was utilized to measure the activity of the omega-amino acid transaminases set forth in the examples which follow.
(§2) A known volume of the enzyme preparation to be tested is incubated at 37° C. and pH 7 in a solution having the following composition:
(§3) A sample is removed and 20% by volume of 12% aqueous trichloroacetic acid are added. Precipitated protein is removed by centrifugation and the concentration of 1-phenylbutan-3-one in the supernatant is determined by liquid chromatography on a 100×8 mm 4 micron Novopak phenyl column eluting with 40% isopropanol and 0.09% phosphoric acid in water. Under these conditions, 1-phenylbutan-3-one elutes at 5.3 minutes.
The following procedure exemplifies the relative rates of conversion, determined directly or calculated from kinetic data, of different chiral amines by soluble enzymatic preparations utilizing the assay described above but substituting the indicated chiral amine.

[2] = tested on: Bacillus megaterium; experiment: induction of omega-amino acid transaminase production by addition of an amine to cultures; format: cell-based; conditions: 2 mM amine inducer, 30 to 40 hours; for Specific Activity (units/mg) Acetate: 40 mM acetate as carbon source; for Specific Activity (units/mg) Succinate: 40 mM succinate as carbon source
Experimental: as §1, §2, §3
Enzyme Recovery: Unless otherwise indicated, cells from culture are centrifuged for 10 minutes at 10,000 G, resuspended in 10 mM of phosphate buffer at pH 7 and 0.5 mM of pyridoxal phosphate, and ruptured by two passes through a chilled French press operating at 15,000 psi. Cell debris is removed by centrifugation for one hour at 10,000 G and the enzyme-containing supernatant collected.
The following procedure exemplifies the growth of microorganisms using ammonium as the sole nitrogen source and then inducing omega-amino acid transaminase production by the addition of an amine.
Bacillus megaterium was grown in 1 L cultures in the standard salt medium supplemented with 40 mM of the indicated carbon source, 5 mM of ammonium chloride, 80 mM of phosphate buffer, and 2 mM of the amine inducer indicated below. After 30 to 40 hours, the enzyme was collected and assayed as described above.

[3] = tested on: omega-amino acid transaminase; experiment: standardized omega-amino acid transaminase activity assay, P. putida enzyme; format: biochemical, Pseudomonas putida
Experimental: as §1, §2, §3
Pseudomonas putida ATCC 39213 was cultured as described in Example 1 and an enzyme extract then was obtained as therein described. The specific activity of the omega-amino acid transaminase was 0.045 units/mg.
(§4) Enzyme extracts from P. putida, B. megaterium, and P. aeruginosa obtained as above were assayed as above at pH 9 in 50 mM of Tris/HCl using 30 mM of R,S-1-phenyl-3-aminobutane, with and without 100 mM of sodium pyruvate. The following relative rates of conversion were observed.
(§5) The transaminase nature of the enzymatic action is apparent from the effect of "suicide inactivators" known to be specific for transaminases {see, for example, Burnett et al., J. Bio. Chem., 225, 428-432 (1980)}, the inactivator (0.5 mM) being preincubated with the assay medium before addition of R,S-1-phenyl-3-aminobutane.
(§6) The stereoselectivity of the omega-amino acid transaminase can be seen from the corresponding assay utilizing 15 mM of R-1-phenyl-3-aminobutane (with pyruvate).

[4] = tested on: omega-amino acid transaminase; experiment: standardized omega-amino acid transaminase activity assay (1-phenylbutan-3-one formed from R,S-1-phenyl-3-aminobutane), B. megaterium enzyme; format: biochemical, Bacillus megaterium
Experimental: as §1, §2, §3, §4, §5, §6

[5] = target: T1, omega-amino acid transaminase (Pseudomonas aeruginosa, UniProt Q9I700); experiment: standardized omega-amino acid transaminase activity assay, P. aeruginosa enzyme; format: biochemical
T1 construct: cell extracts containing the omega-amino acid transaminase then are obtained as therein described; host or cells: Pseudomonas aeruginosa ATCC 15692, cell extract
T1 sequence (Q9I700 1-448): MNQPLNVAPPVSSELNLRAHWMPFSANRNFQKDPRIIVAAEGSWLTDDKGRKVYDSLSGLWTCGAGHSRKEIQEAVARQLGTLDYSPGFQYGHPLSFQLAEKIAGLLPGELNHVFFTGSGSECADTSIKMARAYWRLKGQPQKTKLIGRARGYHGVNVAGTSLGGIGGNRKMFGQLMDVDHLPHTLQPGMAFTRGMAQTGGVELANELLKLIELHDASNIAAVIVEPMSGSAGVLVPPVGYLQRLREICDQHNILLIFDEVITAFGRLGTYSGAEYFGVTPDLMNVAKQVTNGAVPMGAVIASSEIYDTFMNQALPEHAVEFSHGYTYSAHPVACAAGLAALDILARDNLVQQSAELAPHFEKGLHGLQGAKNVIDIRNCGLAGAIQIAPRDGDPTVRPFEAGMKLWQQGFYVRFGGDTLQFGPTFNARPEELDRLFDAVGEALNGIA

[6] = tested on: omega-amino acid transaminase; experiment: relative rates of conversion of 1-phenyl-3-aminobutane with different amino acceptors in place of pyruvate; format: biochemical; conditions: for Relative Rate of Conversion: substrate 1-phenyl-3-aminobutane
Experimental: as §1, §2, §3
The following procedure exemplifies the relative rates of conversion with 1-phenyl-3-aminobutane employing different amino acceptors in place of pyruvate in the assay described above.

[7] = tested on: β-alanine transaminase; conditions: relative activities, Nakano et al. 1977; cited from earlier work
[8] = tested on: -aminobutyrate transaminase; conditions: relative activities, Nakano et al. 1977; cited from earlier work
[9] = tested on: omega-amino acid transaminase; experiment: rate of immobilized enzyme reaction with added benzylacetone; format: biochemical, Bacillus megaterium; conditions: 80 mM R,S-1-phenyl-3-aminobutane, 60 mM glyoxylate, pH 6.5
Experimental: Immobilization: A 47 mm diameter […] (FMC Corp.) support matrix (0.4 g) was loaded into a housing (Millipore Sweenex) fitted with inlet and outlet tubing, a peristaltic pump, and reservoir. The matrix was washed sequentially, at ambient temperatures and a rate of 3 ml/min., with (1) 200 ml of 50 mM of phosphate buffer (pH 7) containing 0.5 mM pyridoxal phosphate over a period of 20 min., (2) 11 ml of a 4.6 mg/ml solution of enzyme obtained in the manner of Example 1 for 120 min., (3) 150 ml of 0.3 M sodium chloride in 50 mM of phosphate buffer (pH 7) containing 0.5 mM pyridoxal phosphate for 30 minutes, and (4) 200 ml of 50 mM of phosphate buffer (pH 7) containing 0.5 mM pyridoxal phosphate over a period of 20 min.
A solution of omega-amino acid transaminase was immobilized onto a matrix according to the methods in Example 16. Four independent 200 milliliter substrate solutions containing 80 mM of R,S-1-phenyl-3-aminobutane, 60 mM glyoxylate, 0.1 mM pyridoxal phospate, and 50 mM potassium phosphate (pH 6.5) were prepared. Benzylacetone in concentrations of 0.50 mM, 0.85 mM, 1.45 mM, and 2.55 mM, respectively, were added to the four substrate solutions and these were pumped through the immobilized enzyme matrix. The rate of the enzyme catalyzed reaction was measured in micromoles/minute.

[10] = solvent-to-aqueous phase partition coefficient of the ketone; format: physicochemical; conditions: heptane as organic solvent
Description: The organic solvent will normally be one in which the ketone produced is soluble to a greater degree than in water. Solvents in which the ketone has a solvent-to-aqueous phase partition coefficient greater than one are suitable and those with coefficients greater than 8 are preferred. Examples of these are liquid hydrocarbons such as benzene or hexane, halogenated hydrocarbons such as chloroform, dichloromethane or, carbon tetrachloride, various fluorocarbons such as freon, long-chain alcohols such as octanol or decanol, esters such as ethyl acetate, or triglyceride oils, A solvent which typifies this is heptane which has a partition coefficient of ≈24. Supercritical fluids such as supercritical CO2 may also be used.

[11] = stereoselectivity: 15 mM R-1-phenyl-3-aminobutane versus R,S-, with pyruvate
[12] = inactivator 0.5 mM preincubated before addition of R,S-1-phenyl-3-aminobutane, None = 100
[13] = general statement of the description

## CC(N)c1ccccc1 (racemic) [R,S-1-phenyl-1-aminoethane]
[1]; amine (R,S) 10 mM
  Relative Rate of Conversion R-enantiomer: 0
  Relative Rate of Conversion S-enantiomer: 100
[2]
  Specific Activity (units/mg) Acetate: 0.39 units/mg
  Specific Activity (units/mg) Succinate: 0.27 units/mg

## CC(N)CCc1ccccc1 (racemic) [R,S-1-phenyl-3-aminobutane]
[3]; [11]
  Relative Rate of Conversion P. putida: 100
[4]; [11]
  Relative Rate of Conversion B. megaterium: 100
[1]; amine (R,S) 30 mM
  Relative Rate of Conversion R-enantiomer: 5
  Relative Rate of Conversion S-enantiomer: 100
[2]
  Specific Activity (units/mg) Acetate: 0.33 units/mg
  Specific Activity (units/mg) Succinate: 0.28 units/mg
[2]; 40 mM gluconate as carbon source
  Specific Activity (units/mg) Gluconate: 0.26 units/mg
[2]; 40 mM glucose as carbon source
  Specific Activity (units/mg) Glucose: 0.62 units/mg
[5]; [11]
  Relative Rate of Conversion P. aeruginosa: 100

## CCC(C)N (racemic) [R,S-2-aminobutane]
[2]
  Specific Activity (units/mg) Acetate: 0.14 units/mg
  Specific Activity (units/mg) Succinate: 0.13 units/mg

## CC(N)c1ccc(Br)cc1 (centres unmarked) [1-(4-bromophenyl)-1-aminoethane]
[1]; amine (R,S) 30 mM
  Relative Rate of Conversion R-enantiomer: 0
  Relative Rate of Conversion S-enantiomer: 100

## CC(N)c1ccc([N+](=O)[O-])cc1 (centres unmarked) [1-(4-nitrophenyl)-1-aminoethane]
[1]; amine (R,S) 5 mM
  Relative Rate of Conversion R-enantiomer: 0
  Relative Rate of Conversion S-enantiomer: 100

## CC(N)c1cccc2ccccc12 (stereo not drawn) [1-(α-naphthyl)1-aminoethane]
[1]; amine (R,S) 10 mM
  Relative Rate of Conversion R-enantiomer: 0
  Relative Rate of Conversion S-enantiomer: 100

## CCC(N)c1ccccc1 (centres unmarked) [1-phenyl-1-aminopropane]
[1]; amine (R,S) 20 mM
  Relative Rate of Conversion R-enantiomer: 11
  Relative Rate of Conversion S-enantiomer: 100

## CCCCCCC(C)N (centres unmarked) [2-aminooctane]
[1]; amine (R,S) 5 mM
  Relative Rate of Conversion R-enantiomer: 0
  Relative Rate of Conversion S-enantiomer: 100

## CCCC(C)=O [2-pentanone]
[6]; amino acceptor 25 mM
  Relative Rate of Conversion: 33

## CC(N)Cc1ccccc1 (centres unmarked) [3-phenyl-2-aminopropane]
[1]; amine (R,S) 10 mM
  Relative Rate of Conversion R-enantiomer: 100
  Relative Rate of Conversion S-enantiomer: 0
[1]; amine (R,S) 15 mM
  Relative Rate of Conversion R-enantiomer: 7
  Relative Rate of Conversion S-enantiomer: 100

## CC(N)CCCc1cccnc1 (centres unmarked) [5-(3-pyridyl)-2-aminopentane]
[1]; amine (R,S) 5 mM
  Relative Rate of Conversion R-enantiomer: 0
  Relative Rate of Conversion S-enantiomer: 100

## NCCCC(=O)O [-aminobutyrate]
[7]
  activity of β-alanine transaminase on the substrate: 43
[8]
  activity of -aminobutyrate transaminase on the substrate: 100

## NC1C=CC=C(C(=O)O)C1 (centres unmarked) [Gabaculine, reference compound]
[3]; [12]
  Relative Rate of Conversion P. putida: 0
[4]; [12]
  Relative Rate of Conversion B. megaterium: 13

## NO [Hydroxylamine, reference compound]
[3]; [12]
  Relative Rate of Conversion P. putida: 3
[4]; [12]
  Relative Rate of Conversion B. megaterium: 10
[5]; [12]
  Relative Rate of Conversion P. aeruginosa: 0

## C[C@@H](N)c1ccc(Br)cc1 [R-1-amino-1-(4-bromophenyl)ethane]
[1]; [13]
  conversion to the nonchiral ketone by the transaminase: unchanged

## C[C@@H](N)c1ccccc1 [R-1-phenyl-1-aminoethane]
[1]; [13]
  conversion to the nonchiral ketone by the transaminase: unchanged
[2]
  Specific Activity (units/mg) Acetate: 0.36 units/mg
  Specific Activity (units/mg) Succinate: 0.27 units/mg

## C[C@@H](N)CCc1ccccc1 [R-1-phenyl-3-aminobutane]
[3]; [11]
  Relative Rate of Conversion P. putida: 3
[4]; [11]
  Relative Rate of Conversion B. megaterium: 15
[1]; [13]
  conversion to 1-phenylbutan-3-one as a factor of that of the S-form: ≤ 0.05
[2]
  Specific Activity (units/mg) Acetate: 0.26 units/mg
  Specific Activity (units/mg) Succinate: 0.21 units/mg
[5]; [11]
  Relative Rate of Conversion P. aeruginosa: 4

## CC[C@@H](C)N [R-2-aminobutane]
[2]
  Specific Activity (units/mg) Acetate: 0.13 units/mg
  Specific Activity (units/mg) Succinate: 0.06 units/mg

## CC=O [acetaldehyde]
[6]; amino acceptor 20 mM
  Relative Rate of Conversion: 50

## CC(=O)c1ccccc1 [acetophenone]
[6]; as amino acceptor, concentration not given
  relative rates: ≤ 10

## O=Cc1ccccc1 [benzaldehyde]
[6]; amino acceptor 25 mM
  Relative Rate of Conversion: 17

## CC(=O)CCc1ccccc1 [benzylacetone]
[9]; benzylacetone 0.50 mM
  ENZYME ACTIVITY: 11.2 µM/min
[9]; benzylacetone 0.85 mM
  ENZYME ACTIVITY: 9.5 µM/min
[9]; benzylacetone 1.45 mM
  ENZYME ACTIVITY: 8.1 µM/min
[9]; benzylacetone 2.55 mM
  ENZYME ACTIVITY: 6.1 µM/min

## CCC(C)=O [butan-2-one]
[6]; amino acceptor 20 mM
  Relative Rate of Conversion: 20

## CCCC=O [butyraldehyde]
[6]; amino acceptor 20 mM
  Relative Rate of Conversion: 90

## O=C1CCCCC1 [cyclohexanone]
[6]; amino acceptor 25 mM
  Relative Rate of Conversion: 23

## O=C1CCCC1 [cyclopentanone]
[6]; amino acceptor 25 mM
  Relative Rate of Conversion: 12

## O=CC(=O)O [glyoxalate]
[6]; amino acceptor 20 mM
  Relative Rate of Conversion: 50

## CCCCCCC=O [heptaldehyde]
[6]; amino acceptor 25 mM
  Relative Rate of Conversion: 80

## CCCCCCC [heptane]
[10]
  partition coefficient (ketone, solvent-to-aqueous phase): ≈ 24

## NC(CO)c1ccccc1 (centres unmarked) [phenylglycinol]
[1]; amine (R,S) 10 mM
  Relative Rate of Conversion R-enantiomer: 100
  Relative Rate of Conversion S-enantiomer: 0

## CCC=O [propionaldehyde]
[6]; amino acceptor 20 mM
  Relative Rate of Conversion: 100

## NCCc1ccc(O)cc1 [tyramine]
[2]
  Specific Activity (units/mg) Acetate: 0.24 units/mg

## NCCC(=O)O [β-alanine]
[7]
  activity of β-alanine transaminase on the substrate: 100
[8]
  activity of -aminobutyrate transaminase on the substrate: 3
